In patent publication US20230233684A1, “USE OF CHELATORS FOR THE PREVENTION OF VISIBLE PARTICLE FORMATION IN PARENTERAL PROTEIN SOLUTIONS” (Hoffmann-La Roche Inc., priority 2020, published 2023):
Read-outs that look alike come from different tables or passages of the source. Blank lines part the entries; values can stand above or below the compound they belong to.

Key:
Type in all cases: physicochemical
[1] = Spiking study with free fatty acids and aluminum, visible particles by Seidenader (Table 4A); conditions: Seidenader results
Protocol: A 100 ppm aluminum stock solution was prepared from aluminum chloride hexahydrate in 20 mM histidine acetate pH 5.5. The actual concentration of aluminum was determined by inductively-coupled plasma mass spectrometry (ICP-MS). This stock solution was then diluted to 10 ppm Al^3+ and sterile-filtered through a 0.22 μm porosity filter cartridge (Sterivex-GV, Millipore).
All vials were sealed with 20 mm teflonized injection stoppers (D777-1, Daikyo) and aluminum crimp caps and homogenized on a MaxQ™ 4000 Benchtop Orbital Shaker (Thermo Scientific™, Waltham, Mass., USA) for 1 hour at 25° C.
LAMA-10 only comprised polysorbate 20 and was used for the preparation of negative controls. All samples were prepared in triplicates.
Samples were stored at 5° C. and the formation of visible particles was assessed for up to 28 days using a black/white and a Seidenader V 90-T instrument (Seidenader Maschinenbau GmbH, Markt Schwaben, DE) as described above.
Samples were analyzed for the presence of visible particles after storage at 2-8° C. for 0, 1 day, 7 days and 28 days using the (A) Seidenader and (B) E/P box.

[2] = FFA particle nucleation by DLS: impact of aluminum concentration on particle kinetics; conditions: 20 ppb Al; 5° C.; not captured in the 40 hours experiment
Protocol: DLS experiments were performed on DynaPro(R) plate reader (Wyatt, Santa Barbara, Calif.). The DLS plate reader is flushed with nitrogen 5 hours before commencing the measurements and cooled down to 5° C. during the entire duration of the measurements. 200 μL of sample solutions comprising of 20 μg lauric acid (LA) in 20 mM L-Histidine buffer at pH 6.0 supplemented with 6% v/v DMSO, and varying amounts of metal ions (Al^3+, Fe^3, Zn^2+, Mg^2+, Ca^2+, Ni^2+) were mixed in the cuvettes of black glass bottom 96 well plates (Greiner Bio-One GmbH, Frickenhausen, Germany). FFA nucleation and particle growth were measured over 40-70 hours using a 633 nm laser and a backscatter detection system at 158°. The hydrodynamic particle radius (rH) was determined by fitting a cumulant fit to the obtained auto-correlation function. […]
Al sample solutions (100×) in 20 mM Histidine buffer pH 6.0 were prepared from a sterile 50 ppm Al stock solution (20 mM Glycine pH 2.5) and were spiked into the DLS assay buffer at target concentrations of 0, 20, 40, 60 and 100 ppb Al. Particle nucleation and growth was measured over a period of 40 hours as described above.
Quantitative analysis was performed by analyzing the intensity of the scattered laser light of the FFA particles over time by fitting a sigmoidal Boltzmann function to the growth curves. […]

[3] = FFA particle nucleation by DLS: interaction of bi- and trivalent cations with lauric acid; conditions: for FFA salt particle formation and growth (DLS): metal ion 0-30 μM, 70 hours, 5° C.
Protocol: DLS experiments were performed on DynaPro(R) plate reader (Wyatt, Santa Barbara, Calif.). The DLS plate reader is flushed with nitrogen 5 hours before commencing the measurements and cooled down to 5° C. during the entire duration of the measurements. 200 μL of sample solutions comprising of 20 μg lauric acid (LA) in 20 mM L-Histidine buffer at pH 6.0 supplemented with 6% v/v DMSO, and varying amounts of metal ions (Al^3+, Fe^3, Zn^2+, Mg^2+, Ca^2+, Ni^2+) were mixed in the cuvettes of black glass bottom 96 well plates (Greiner Bio-One GmbH, Frickenhausen, Germany). FFA nucleation and particle growth were measured over 40-70 hours using a 633 nm laser and a backscatter detection system at 158°. The hydrodynamic particle radius (rH) was determined by fitting a cumulant fit to the obtained auto-correlation function. […] The laser power was adjusted before each measurement sequence and kept constant during the entire measurement. The attenuation level was set to zero for all measurements in order to collect the maximum amount of scattered light. Aluminium (Al), Iron (Fe), Zink (Zn), Magnesium (Mg), Calcium (Ca) and Nickel (Ni) stock solutions were prepared at 4 mM in Milli-Q water pH 2.5 from their respective salts and stored at 2-8° C. until used. Diluted sample solutions (100×) were freshly prepared in Milli-Q water pH 2.5. The DLS assay buffer was added to the salt sample solutions to attain metal ion target concentrations of 0, 1, 3, 10 and 30 μM. Particles size (rH) and intensity were measured over a period of 70 h as described above.

[4] = Spiking study with partially degraded polysorbate 20 and aluminum, visible particles by E/P box; conditions: 0.05 mM DTPA or 0.005% (w/v) EDTA; 250 ppb aluminum; partially degraded polysorbate below the solubility limit
Protocol: Diluted aluminum solutions comprising in 20 mM histidine acetate pH 5.5 were prepared as described above and filled into 20 mL type I borosilicate glass vials (Schott, Mainz, DE). […] Vials were sealed with 20 mm teflonized injection stoppers (D777-1, Daikyo) and aluminum crimp caps and homogenized on a MaxQ™ 4000 Benchtop Orbital Shaker (Thermo Scientific™, Waltham, Mass., USA) for 1 hour at 25° C.
PS20-Std only comprised non-degraded polysorbate 20 and was used for the preparation of negative controls. All samples were prepared in triplicates.
Samples were stored at 5° C. and particle formation was assessed for up to 28 days by visual inspection using a black/white panel according Ph.
Samples were visually inspected (E/P box) for the presence of visible particles after incubation for 0, 1 day, 7 days and 28 days at 2-8° C.

[5] = Spiking study with different PS20 and PS80 grades, aluminum and DTPA, visible particles by E/P (Table 10); conditions: 50 μM DTPA, 250 ppb aluminum, all grades of PS
Protocol: (§1) Super refined (SR) PS20 and PS80, high purity (HP) PS20 and PS80, as well as pure oleic acid (POA) PS80 were enzymatically hydrolyzed by 10% using immobilized enzymes (Graf et al. 2020) (mucor miehei lipase (MML), Candida antarctica lipase (CAL) and Candida antarctica lipase B (CALB)). […] Diluted aluminum solutions comprising in 20 mM histidine acetate pH 5.5 were prepared as described above and filled into 20 mL type I borosilicate glass vials (Schott, Mainz, DE). Samples containing either 0 or 250 ppb of aluminum (Al^3) were spiked with different PS stock solutions (HP PS20, SR PS20, HP PS80, SR PS80, POA PS80; degradation level of 0 or 10%). In addition, samples containing 250 ppb aluminum were supplemented with 0.05 mM diethylenetriaminepentaacetic acid (DTPA) prior spiking with partially degraded PS. Vials were sealed with 20 mm teflonized injection stoppers (D777-1, Daikyo) and aluminum crimp caps and homogenized on a MaxQTM 4000 Benchtop Orbital Shaker (Thermo ScientificTM, Waltham, Mass., USA) for 1 hour at 25° C. […] Different grades of non-degraded polysorbate 20 and 80 served as negative controls. All samples were prepared in triplicates. Samples were stored at 5° C. and particle formation was assessed for up to 22 days by visual inspection using a black/white panel according Ph. Eur. 2.9.20. and enhanced visual inspection ([…] instrument) as described above.

[6] = Spiking study with different PS20 and PS80 grades, aluminum and DTPA, visible particles by Seidenader (Table 11); conditions: DTPA, 250 ppb aluminum, independent of PS grade or enzyme
Protocol: as §1

[7] = FFA metal nucleation by DLS in presence of DTPA, Fe nucleation study
Protocol: (§2) DLS experiments were performed on DynaPro(R) plate reader (Wyatt, Santa Barbara, Calif.). The DLS plate reader is flushed with nitrogen 5 hours before commencing the measurements and cooled down to 5° C. during the entire duration of the measurements. 200 μL of sample solutions comprising of 20 μg lauric acid (LA) in 20 mM L-Histidine buffer at pH 6.0 supplemented with 6% v/v DMSO, and varying amounts of metal ions (Al^3+, Fe^3, Zn^2+, Mg^2+, Ca^2+, Ni^2+) were mixed in the cuvettes of black glass bottom 96 well plates (Greiner Bio-One GmbH, Frickenhausen, Germany). FFA nucleation and particle growth were measured over 40-70 hours using a 633 nm laser and a backscatter detection system at 158°. The hydrodynamic particle radius (rH) was determined by fitting a cumulant fit to the obtained auto-correlation function. The lower and upper boundary for the cumulant fit was set to lag times τ of 10 μs and 1000 μs respectively. The laser power was adjusted before each measurement sequence and kept constant during the entire measurement. The attenuation level was set to zero for all measurements in order to collect the maximum amount of scattered light.
For the Al nucleation study, a metal ion target concentration of 2 μM was used. […] For the Fe nucleation study, the target concentration of Fe was 4 μM. The final concentration of DTPA was either 0, 0.04, 0.4, 2.0, 4.0 or 40 μM resulting in molar ratios (DTPA:Fe) of 0, 0.01, 0.1, 0.5, 1.0 and 10, respectively. DLS measurements were conducted over 50 hours at 5° C. as described above.

[8] = FFA metal nucleation by DLS in presence of DTPA and real glass leachables; conditions: lauric acid and real glass leachables
Protocol: as §2
Representative glass leachables solutions were prepared according to a procedure disclosed in Allmendinger et al. (Allmendinger et al. 2021). […]

[9] = Solubility of free fatty acids in histidine acetate buffer pH 5.5, visible particles by Seidenader; conditions: kinetic from dmso stock
Protocol: In brief, lauric acid (“LA”. Sigma-Aldrich/Merck, Darmstadt, DE) and myristic acid (“MA”, Sigma-Aldrich/Merck, Darmstadt, DE) were suspended in PS20 HP (Croda, Edison, N.J., USA) and stirred (150 rpm) for 30 min at 60° C. until both FFAs were fully dissolved. Solutions were diluted 1:5 with pre-warmed (60° C.) water for injection (WFI) and immediately filtered through 0.22 μm PVDF Steriflip filters (Merck Millipore, Darmstadt, DE). The concentration of LA and MA in FFA stock solutions was verified by LC-MS as described by Honemann et al. (Honemann et al. 2019) LA/MA/PS20 stock solutions were spiked into 20 mM histidine acetate buffer pH 5.5 (1:500 dilution, n=3) and homogenized on a MaxQ™ 4000 Benchtop Orbital Shaker (Thermo Scientific™, Waltham, Mass., USA) for 1 hour at 25° C. Samples were stored at 5° C. and analyzed for visible particles after 0, 1, 7 and 28 days using a black/white panel according Ph. Eur. 2.9.20 (European Directorate for the Quality of Medicines) and a Seidenader V 90-T instrument (Seidenader Maschinenbau GmbH, Markt Schwaben, DE). […]
Free fatty acid (FFA) stock solutions of lauric acid (LA) and myristic acid (MA) were spiked into 20 mM histidine acetate buffer pH 5.5 (n=3). Samples were analyzed for the presence of visible particles after incubation at 2-8° C. for 0, 1 day, 7 days and 28 days using the (A) Seidenader and (B) E/P box.

Trace amount of aluminum sufficient to complex free fatty acids and form visible particles [1]: 10 ppb
FFA salt particle formation and growth (DLS) [3]: particle formation and growth
Compound: [Al+3] [Al]
Inflection point of the sigmoidal curve fit of scattering intensity [2]: around 65 hours

Compound: [Ca+2] [Ca]
FFA salt particle formation and growth (DLS) [3]: did not lead to FFA salt particle formation or growth

Formation of visible FFA particles on addition of chelator [4]: successfully prevented
Visible particles in presence of the chelator [5]: no particles were observed
Particle formation in presence of the chelator [6]: significantly mitigated
Particle radius ([7]; DTPA to Fe ratio of 0.5): only slightly changed
Scattering intensity ([7]; DTPA to Fe ratio of 0.5): significantly decreased
Particle formation and growth (DLS) ([7]; equimolar amounts of DTPA, lauric acid and 4 μM Fe): complete suppression
Molar ratio of chelator to Al efficient in mitigating particle formation [8]: at least 1.5
Compound: O=C(O)CN(CCN(CC(=O)O)CC(=O)O)CCN(CC(=O)O)CC(=O)O [DTPA, Diethylenetriaminepentaacetic acid]

Hydrodynamic particle radius rH ([3]; instant particle formation, no further increase over time): 50-60 nm
FFA salt particle formation and growth (DLS) [3]: particle formation and growth
Compound: [Fe+3] [Fe]

Compound: [Mg+2] [Mg]
FFA salt particle formation and growth (DLS) [3]: did not lead to FFA salt particle formation or growth

Compound: [Ni+2] [Ni]
FFA salt particle formation and growth (DLS) [3]: did not lead to FFA salt particle formation or growth

Compound: [Zn+2] [Zn]
FFA salt particle formation and growth (DLS) [3]: did not lead to FFA salt particle formation or growth

Compound: CCCCCCCCCCCC(=O)O [lauric acid]
solubility at 28 days ([9]; 20 mM histidine acetate buffer with 0.04% PS20, 5 °C, aqueous with cosolvent or surfactant or cyclodextrin, lauric and myristic acid together, histidine acetate buffer pH 5.5, 0.04% PS20, 2-8° C., 28 days, Seidenader and E/P box, read-out: Solubility limit (concentration at which free fatty acids exceeded the solubility limit)): < 12.5 µg/mL

solubility at 28 days ([9]; 5 °C, pH 5.5, aqueous with cosolvent or surfactant or cyclodextrin): < 5 µg/mL
Compound: CCCCCCCCCCCCCC(=O)O [myristic acid]
